Like-named read-outs stand apart in the source and are kept apart here.
Assays:
WT EGFR cell line A-431 = assay: Cell proliferation, WT EGFR A431 (CellTiter-Glo, 72 h); assay type: cell-based; details: Homo sapiens, A-431, 72 h, A431, 72 h proliferation; read-out: EGFR WT A431 GI50;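 note: proliferation from a luminescent ATP viability signal, expressed as 100 × (treated minus time-zero plate) over (DMSO control minus time-zero plate), cells grown with 10% FBS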
Ri-1 cells = assay: BTK (wt) cell proliferation, Ri-1 (CellTiter-Glo, 72 h); assay type: cell-based; details: Ri-1 cells, 72 h, CellTiter-Glo, read-out: BTK WT Ri-1 GI50;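 note: viable cells quantified as cellular ATP luminescence, proliferation normalized to a time-zero plate and the DMSO control, compounds tested across a dilution series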
[1] = biological target: T1, human Her2 exon 20 insertion mutation YVMA (Homo sapiens, UniProt P04626, INS775YVMA); assay: Her2 Exon 20 YVMA insertion cellular phosphorylation inhibition (MSD p-Her2 Y1248/total Her2); assay type: cell-based; details: Her2 YVMAins cells, 4 h compound;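 note: lentivirally transduced NIH-3T3 cells in 1% FBS medium, electrochemiluminescent MSD read-out, graded compound concentrations at 37 °C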
T1 construct: expressed in transfected cells; host or cells: NIH-3T3, lentiviral transduction, puromycin selection

[2] = test system: NCI-H1975 EGFR L858R/T790M cells; assay: Cell proliferation, NCI-H1975 EGFR L858R/T790M (CellTiter-Glo, 72 h); assay type: cell-based; details: Homo sapiens, NCI-H1975, 72 h, NCI-H1975, 72 h proliferation; read-out: EGFR L858R and T790M mutation GI50;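 note: viable cells quantified by luciferase-based ATP luminescence, proliferation expressed relative to DMSO-treated wells (100%) after subtracting a parallel plate read at the time of dosing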
[3] = In vitro rat hepatocytes clearance assay; details: male, rat, cryopreserved rat hepatocytes (suspension), rat hepatocytes Clint (µL/min/10^6cells), 1 µM-range incubation up to 100 min
Description: (§1) The protocol for rat/human hepatocytes metabolic stability assay is employed to determine the clearance of the compounds of the present disclosure in vitro.
(§2) Rat hepatocytes in male gender and human hepatocytes in mixed gender were obtained from commercial vendors (e.g., BioreclamationIVT) and stored at -150° C. prior to use. 10 mM stock solutions of tested compounds were prepared in DMSO. Thawing medium and supplement incubation medium (serum-free) were placed in a 37° C. water bath for at least 15 minutes prior to use. Stock solutions were diluted to 100 µM by combining 198 µL acetonitrile and 2 µL of 10 mM stock solution.
(§3) Vials of cryopreserved hepatocytes were removed from storage, ensured that vials remain at cryogenic temperatures. The vials were thawed in a 37° C. water bath with gently shaking. Vials were kept in water bath until all ice crystals had dissolved and were no longer visible. Vials were sprayed with 70% ethanol before being transferred to a biosafety cabinet. And then the contents were poured into the 50 mL thawing medium conical tube. Vials were centrifuged at 100 g for 10 minutes at room temperature.
(§4) Cell viability and density were counted using a Trypan Blue exclusion, and then cells were diluted with serum-free incubation medium to a working cell density of 1 × 10^6 viable cells/ml. […] The inactivated hepatocytes were used to prepare negative samples, which were used to exclude the misleading factor that resulted from instability of chemical itself.
(§5) Aliquots of 247.5 µL hepatocytes were dispensed into each well of a 96-well non-coated plate. The plate was placed in the incubator on an orbital shaker for approximately 10 minutes. Aliquots of 2.5 µL of the 100 µM test compounds were added into respective wells of the non-coated 96-well plate to start the reaction. This assay was performed in duplicate. The plate was incubated in the incubator on an orbital shaker for the designed time points. […] Samples were centrifuges for 20 minutes at 4000 g and aliquots of 100 µL of the supernatants were used for LC-MS/MS analysis for measurement of test compounds
(§6) In vitro hepatocyte clearance was estimated based on determination of elimination half-life (T½) of compounds disappearance from their initial concentrations. Peak area ratios of each compound (test or control) to IS was calculated. Ln (%Control) versus Incubation Time (min) curve was plotted, and the slope of a linear fitting line was calculated.

[4] = In vitro human hepatocytes clearance assay; details: both, human, cryopreserved human hepatocytes (suspension), human hepatocytes Clint (µL/min/10^6cells), mixed gender human hepatocytes, incubation up to 100 min
Description: as §1, §2, §3, §4, §5, §6

TMD-8 cells = assay: BTK (wt) cell proliferation, TMD-8 (CellTiter-Glo, 72 h); assay type: cell-based; details: TMD-8 cells, 72 h, CellTiter-Glo, read-out: BTK WT TMD-8 GI50;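 note: viable cells quantified by ATP-based luminescence, proliferation expressed as percent of DMSO control after subtracting a time-zero baseline plate read at dosing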
EGFR L858R&T790M = biological target: T2, EGFR L858R&T790M (Homo sapiens, UniProt P00533, L858R/T790M); assay: EGFR L858R and T790M cellular phosphorylation inhibition in NCI-H1975 (MSD); assay type: cell-based; details: NCI-H1975 cells, 4 h compound, p-EGFR(Y1068)/total EGFR; read-out: EGFR L858R and T790M mutation IC50;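 note: phosphorylated and total EGFR detected by electrochemiluminescence, cells exposed to compound in medium containing 1% FBS at 37 °C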
T2 construct: host or cells: NCI-H1975
T2 sequence (P00533 25-1210 T790M/L858R): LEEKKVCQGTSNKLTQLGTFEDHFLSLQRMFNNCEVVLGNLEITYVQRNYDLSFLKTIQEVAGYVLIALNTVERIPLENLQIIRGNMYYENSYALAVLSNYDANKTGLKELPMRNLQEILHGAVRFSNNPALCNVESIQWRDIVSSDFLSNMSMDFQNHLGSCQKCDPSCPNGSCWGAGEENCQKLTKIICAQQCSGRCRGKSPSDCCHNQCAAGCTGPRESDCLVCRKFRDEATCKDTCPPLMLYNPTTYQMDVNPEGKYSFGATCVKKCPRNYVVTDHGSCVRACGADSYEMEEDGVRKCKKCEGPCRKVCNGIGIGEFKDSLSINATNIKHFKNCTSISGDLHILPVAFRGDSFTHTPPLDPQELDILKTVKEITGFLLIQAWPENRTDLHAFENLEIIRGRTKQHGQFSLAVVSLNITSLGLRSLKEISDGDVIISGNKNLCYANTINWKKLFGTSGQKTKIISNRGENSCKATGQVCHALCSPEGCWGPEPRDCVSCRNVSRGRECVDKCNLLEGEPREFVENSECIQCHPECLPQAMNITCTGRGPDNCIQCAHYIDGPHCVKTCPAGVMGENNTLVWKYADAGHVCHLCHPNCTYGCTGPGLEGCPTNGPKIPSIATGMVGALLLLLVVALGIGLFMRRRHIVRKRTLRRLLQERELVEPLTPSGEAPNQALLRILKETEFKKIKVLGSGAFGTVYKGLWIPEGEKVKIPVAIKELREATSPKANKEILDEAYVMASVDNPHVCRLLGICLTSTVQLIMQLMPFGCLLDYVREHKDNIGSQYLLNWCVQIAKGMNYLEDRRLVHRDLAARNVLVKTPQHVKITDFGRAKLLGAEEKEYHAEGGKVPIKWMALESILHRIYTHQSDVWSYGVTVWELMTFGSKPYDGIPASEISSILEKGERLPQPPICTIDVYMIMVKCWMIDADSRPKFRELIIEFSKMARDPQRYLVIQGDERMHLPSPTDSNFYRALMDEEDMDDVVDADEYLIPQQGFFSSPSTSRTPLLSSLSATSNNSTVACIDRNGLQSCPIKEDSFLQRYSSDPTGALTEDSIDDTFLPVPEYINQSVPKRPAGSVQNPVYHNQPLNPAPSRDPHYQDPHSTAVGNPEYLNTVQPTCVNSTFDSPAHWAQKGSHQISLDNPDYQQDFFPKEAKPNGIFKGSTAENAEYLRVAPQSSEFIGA
Description: One day before the test, WT or mutant cells were seeded in 96 well plates at appropriate concentrations with corresponding growth media supplemented with 1% FBS, and incubated overnight. The next day, tested compounds at a series of concentrations were added into each individual well of the plates, and the plates were incubated for 4 h at 37° C. with 5% CO2.
The EGFR (Y1068) phosphorylation level (activity) of cells in each well were then measured with MSD kit named “MULTI-SPOT®96 4-Spot HB Prototype EGFR Triplex [sequence]: pEGFR(Tyr1068),pEGFR(Tyr1173), Total EGFR” according to the manufacturer’s instruction (MESO SCALE DISCOVERY, Cat# N45ZB-1). The assay is an electrochemiluminescent method for determining both phosphorylated and total EGFR of cells with an MSD SECTOR® Imager and the ratio of p-EGFR/total EGFR can be generated by the machine. The Her2 (Y1248) phosphorylation level (activity) of cells in each well were measured with MSD Kit named “Phospho-ErbB2 (Tyr1248) Assay Whole Cell Lysate Kit” according to the manufacturer’s instruction (MESO SCALE DISCOVERY, Cat# K151CLD-3). The assay is an electrochemiluminescent method (MESO SCALE DISCOVERY) for determining both phosphorylated and total Her2 of cells with an MSD SECTOR® Imager and then the ratio of p-Her2/total Her2 can be generated by the machine.

[5] = biological target: T3, human EGFR exon 20 V769_D770insASV (Homo sapiens, UniProt P00533, INS769ASV); assay: EGFR Exon20 ASV insertion cellular phosphorylation inhibition (MSD pEGFR Y1068/total EGFR); assay type: cell-based; details: Ba/F3 EGFR ASV ins cells, 4 h compound, p-EGFR(Y1068)/total EGFR;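 note: electrochemiluminescent readout on an MSD SECTOR Imager, IL3-independent transduced cells in medium with 1% FBS, compound concentration series at 37 °C and 5% CO2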
T3 construct: expressed in transfected cells; host or cells: Ba/F3 (DSMZ ACC-300), lentiviral transduction, puromycin selection, IL3 depletion
T3 sequence (P00533 with tags, fused parts or gaps INS769ASV): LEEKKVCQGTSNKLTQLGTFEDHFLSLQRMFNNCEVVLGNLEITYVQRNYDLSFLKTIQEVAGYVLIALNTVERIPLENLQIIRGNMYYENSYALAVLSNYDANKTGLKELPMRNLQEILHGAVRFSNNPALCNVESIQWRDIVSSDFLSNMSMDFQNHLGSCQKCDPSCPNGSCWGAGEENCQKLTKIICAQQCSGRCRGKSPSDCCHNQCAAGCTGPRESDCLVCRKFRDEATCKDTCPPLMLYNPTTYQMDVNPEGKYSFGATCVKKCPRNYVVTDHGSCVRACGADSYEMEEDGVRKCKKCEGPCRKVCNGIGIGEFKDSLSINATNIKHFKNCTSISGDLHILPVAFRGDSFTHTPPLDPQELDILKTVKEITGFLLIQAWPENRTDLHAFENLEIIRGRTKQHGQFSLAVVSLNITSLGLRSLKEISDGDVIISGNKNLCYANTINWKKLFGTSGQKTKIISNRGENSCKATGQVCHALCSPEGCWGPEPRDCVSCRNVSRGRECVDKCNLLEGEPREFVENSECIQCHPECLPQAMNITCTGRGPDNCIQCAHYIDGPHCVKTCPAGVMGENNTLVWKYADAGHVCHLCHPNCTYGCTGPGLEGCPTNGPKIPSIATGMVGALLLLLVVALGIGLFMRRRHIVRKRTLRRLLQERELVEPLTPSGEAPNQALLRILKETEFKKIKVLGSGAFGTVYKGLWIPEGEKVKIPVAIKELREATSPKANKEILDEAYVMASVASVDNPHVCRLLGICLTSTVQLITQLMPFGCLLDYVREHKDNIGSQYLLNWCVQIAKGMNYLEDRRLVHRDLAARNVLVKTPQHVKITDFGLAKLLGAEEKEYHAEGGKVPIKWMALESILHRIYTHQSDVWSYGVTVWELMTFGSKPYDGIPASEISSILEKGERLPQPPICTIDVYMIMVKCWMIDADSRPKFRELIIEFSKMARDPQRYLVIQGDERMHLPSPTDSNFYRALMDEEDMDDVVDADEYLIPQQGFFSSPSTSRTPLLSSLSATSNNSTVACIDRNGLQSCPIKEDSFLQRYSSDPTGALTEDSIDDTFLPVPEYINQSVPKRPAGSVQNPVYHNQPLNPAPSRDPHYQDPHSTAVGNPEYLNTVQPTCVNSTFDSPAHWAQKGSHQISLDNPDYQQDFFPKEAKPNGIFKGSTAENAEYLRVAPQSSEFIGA

WT EGFR = biological target: T4, WT EGFR (Homo sapiens, UniProt P00533); assay: WT EGFR cellular phosphorylation inhibition in A-431 (hEGF stimulated, MSD); assay type: cell-based; details: A431 cells, 4 h compound, then 100 ng/ml hEGF 10 min;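 note: electrochemiluminescence read-out of EGFR Tyr1068 phosphorylation expressed as ratio to total EGFR, cells kept in medium with 1% FBS, compounds tested as a concentration series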
T4 construct: host or cells: A-431
T4 sequence (P00533 25-1210): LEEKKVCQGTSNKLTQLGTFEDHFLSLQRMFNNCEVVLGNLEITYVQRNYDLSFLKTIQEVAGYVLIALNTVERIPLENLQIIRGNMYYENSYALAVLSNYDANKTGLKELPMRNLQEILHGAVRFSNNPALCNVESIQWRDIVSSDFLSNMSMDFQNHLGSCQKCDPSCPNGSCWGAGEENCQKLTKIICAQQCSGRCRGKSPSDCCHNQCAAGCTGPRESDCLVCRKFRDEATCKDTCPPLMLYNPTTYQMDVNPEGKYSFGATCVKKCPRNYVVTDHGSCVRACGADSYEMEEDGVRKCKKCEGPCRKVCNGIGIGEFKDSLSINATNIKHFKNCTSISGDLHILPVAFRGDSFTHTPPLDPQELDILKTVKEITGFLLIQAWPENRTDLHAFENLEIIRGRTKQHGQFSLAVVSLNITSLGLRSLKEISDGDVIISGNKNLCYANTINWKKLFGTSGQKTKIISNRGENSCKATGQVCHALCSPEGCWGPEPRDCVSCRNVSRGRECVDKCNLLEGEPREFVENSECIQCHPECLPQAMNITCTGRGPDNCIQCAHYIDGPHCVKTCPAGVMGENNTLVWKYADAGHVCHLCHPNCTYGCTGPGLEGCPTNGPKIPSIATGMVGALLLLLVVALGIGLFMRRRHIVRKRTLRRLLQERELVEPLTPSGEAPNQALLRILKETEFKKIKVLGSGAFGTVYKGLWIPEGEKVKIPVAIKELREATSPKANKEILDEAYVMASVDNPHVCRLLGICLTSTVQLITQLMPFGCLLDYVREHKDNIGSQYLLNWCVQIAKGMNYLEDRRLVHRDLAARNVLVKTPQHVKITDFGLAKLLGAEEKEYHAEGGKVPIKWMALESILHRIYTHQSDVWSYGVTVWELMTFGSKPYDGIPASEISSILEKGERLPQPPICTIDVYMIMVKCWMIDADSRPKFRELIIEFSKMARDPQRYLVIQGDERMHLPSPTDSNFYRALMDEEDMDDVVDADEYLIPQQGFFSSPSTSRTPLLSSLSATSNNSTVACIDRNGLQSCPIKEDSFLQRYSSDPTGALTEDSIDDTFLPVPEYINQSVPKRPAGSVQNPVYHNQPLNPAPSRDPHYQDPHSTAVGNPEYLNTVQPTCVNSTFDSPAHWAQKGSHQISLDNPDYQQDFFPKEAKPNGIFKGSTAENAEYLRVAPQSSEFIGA

DB cells = assay: BTK (wt) cell proliferation, DB (CellTiter-Glo, 72 h); assay type: cell-based; details: Homo sapiens, DB, DB cells, CellTiter-Glo, read-out: Non-BCR activated DB GI50;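 note: DB cells in 384-well plates given a dilution series of compound, viable cells read by ATP luminescence, growth expressed versus DMSO control after subtracting a time-zero plate reading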
Ba/F3 EGFR NPH ins cells = assay: Cell proliferation, Ba/F3 EGFR NPH ins (CellTiter-Glo, 72 h); assay type: cell-based; details: Ba/F3 EGFR, 72 h, Ba/F3 EGFR NPH ins, 72 h proliferation; read-out: EGFR Exon20 NPH insertion GI50;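 note: IL3-independent cells carrying constitutively phosphorylated EGFR, compound dilution series, viable cells quantified by ATP luminescence, growth relative to DMSO wells after subtracting pre-dosing (day 0) baseline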
[6] = biological target: T5, human EGFR exon 20 H773_V774insNPH (Homo sapiens, UniProt P00533, INS773NPH); assay: EGFR Exon20 NPH insertion cellular phosphorylation inhibition (MSD pEGFR Y1068/total EGFR); assay type: cell-based; details: Ba/F3 EGFR NPH ins cells, 4 h compound, p-EGFR(Y1068)/total EGFR;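 note: IL3-independent Ba/F3 cells with constitutively phosphorylated EGFR, compound exposure at 37 °C under 5% CO2, electrochemiluminescent MSD measurement of the p-EGFR to total EGFR ratio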
T5 construct: host or cells: Ba/F3
T5 sequence (P00533 with tags, fused parts or gaps INS773NPH): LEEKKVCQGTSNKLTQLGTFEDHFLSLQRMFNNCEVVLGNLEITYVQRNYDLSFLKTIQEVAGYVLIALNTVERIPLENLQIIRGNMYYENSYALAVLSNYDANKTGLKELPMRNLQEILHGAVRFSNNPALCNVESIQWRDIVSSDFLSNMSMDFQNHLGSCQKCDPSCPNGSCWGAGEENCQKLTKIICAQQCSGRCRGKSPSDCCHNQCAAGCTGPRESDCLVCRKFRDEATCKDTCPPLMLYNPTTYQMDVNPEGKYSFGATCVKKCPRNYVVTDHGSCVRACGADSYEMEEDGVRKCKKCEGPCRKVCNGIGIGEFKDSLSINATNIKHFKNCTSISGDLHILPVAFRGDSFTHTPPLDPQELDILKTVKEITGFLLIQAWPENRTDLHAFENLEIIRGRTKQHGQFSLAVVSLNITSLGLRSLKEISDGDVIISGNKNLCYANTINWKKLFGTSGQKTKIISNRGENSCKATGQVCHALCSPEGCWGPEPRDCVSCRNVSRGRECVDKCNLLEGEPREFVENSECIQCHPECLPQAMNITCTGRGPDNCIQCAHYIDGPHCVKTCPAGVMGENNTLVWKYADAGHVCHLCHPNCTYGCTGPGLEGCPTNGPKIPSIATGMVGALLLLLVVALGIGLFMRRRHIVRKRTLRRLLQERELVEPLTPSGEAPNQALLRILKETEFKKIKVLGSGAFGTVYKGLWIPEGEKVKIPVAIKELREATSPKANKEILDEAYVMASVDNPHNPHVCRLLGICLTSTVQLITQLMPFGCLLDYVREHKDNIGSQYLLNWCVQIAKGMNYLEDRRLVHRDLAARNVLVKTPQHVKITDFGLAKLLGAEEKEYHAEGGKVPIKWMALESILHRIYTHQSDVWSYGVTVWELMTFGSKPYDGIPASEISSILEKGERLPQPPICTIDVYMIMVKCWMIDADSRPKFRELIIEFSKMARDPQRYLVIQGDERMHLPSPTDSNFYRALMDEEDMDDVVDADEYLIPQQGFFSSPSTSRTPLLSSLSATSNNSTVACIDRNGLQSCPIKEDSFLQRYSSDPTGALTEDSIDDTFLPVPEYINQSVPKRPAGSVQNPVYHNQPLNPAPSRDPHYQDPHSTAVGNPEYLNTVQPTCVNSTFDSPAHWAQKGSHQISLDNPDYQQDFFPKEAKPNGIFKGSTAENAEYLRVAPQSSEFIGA

[7] = test system: Her2 exon 20 insertion YVMA transduced NIH-3T3 cell line; assay: Cell proliferation, Her2 YVMAins NIH-3T3 (CellTiter-Glo, 72 h); assay type: cell-based; details: Mus musculus, NIH3T3, 72 h, Her2 YVMAins cells, 72 h proliferation; read-out: Her2 Exon 20 YVMA insertion GI50;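 note: viable cells quantified by ATP luminescence, growth over a day-zero baseline plate expressed as percent of DMSO control growth, compound dilution series in 10% FBS medium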
OCI-LY-10 cells = assay: BTK (wt) cell proliferation, OCI-LY-10 (CellTiter-Glo, 72 h); assay type: cell-based; details: OCI-LY-10 cells, 72 h, CellTiter-Glo, read-out: BTK WT OCI-LY-10 GI50;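 note: viable cells quantified via cellular ATP luminescence, proliferation given as percent of DMSO control after subtracting a duplicate plate read at time of dosing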
Ba/F3 EGFR ASV ins cells = assay: Cell proliferation, Ba/F3 EGFR ASV ins (CellTiter-Glo, 72 h); assay type: cell-based; details: Ba/F3 EGFR, 72 h, Ba/F3 EGFR ASV ins, 72 h proliferation; read-out: EGFR Exon20 ASV insertion GI50;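 note: IL3-independent Ba/F3 cells transduced with EGFR V769_D770insASV, cellular ATP luminescence after compound exposure, growth relative to DMSO control with the day-0 baseline reading subtracted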

Row | SMILES | GI50 (WT EGFR cell line A-431) [nM] | GI50 (Ri-1 cells) [nM] | IC50 [1] [nM] | GI50 [2] [nM] | hepatocyte CLint at 1 µM [3] [µL/min/1e6 cells] | hepatocyte CLint at 1 µM [4] [µL/min/1e6 cells] | GI50 (TMD-8 cells) [nM] | IC50 (EGFR L858R&T790M) [nM] | IC50 [5] [nM] | IC50 (WT EGFR) [nM] | GI50 (DB cells) [nM] | GI50 (Ba/F3 EGFR NPH ins cells) [nM] | IC50 [6] [nM] | GI50 [7] [nM] | GI50 (OCI-LY-10 cells) [nM] | GI50 (Ba/F3 EGFR ASV ins cells) [nM] | GI50 (Ri-1 cells; Ri-1, 72 h) [nM] | GI50 (TMD-8 cells; Homo sapiens, TMD8, 72 h) [nM] | GI50 (OCI-LY-10 cells; Homo sapiens, OCI-Ly10, 72 h) [nM]
1 | C=CC(=O)Nc1cc(Nc2nccc(Nc3cc(Cl)c(F)cc3C(C)(O)CC)n2)c(OC)cc1N1CC[C@@H](N(C)C)C1 (single isomer, unassigned) [Compound 76, N-(5-(4-(5-chloro-4-fluoro-2-((R)-2-hydroxybutan-2-yl)phenylamino)pyrimidin-2-ylamino)-2-((R)-3-(dimethylamino)pyrrolidin-1-yl)-4-methoxyphenyl) acrylamide or N-(5-(4-(5-chloro-4-fluoro-2-((S)-2-hydroxybutan-2-yl)phenylamino)pyrimidin-2-ylamino)-2-((R)-3-(dimethylamino)pyrrolidin-l-yl)-4-methoxyphenyl) acrylamide] | 38.3 | 5.93 | 11.6 | 5.4 | 13.9 | 4.01 | 8.44 | 1.8 | 103 | 596 | 1070 | 85.9 | 27.9 | 97.7 | 2.93 | 113 | – | – | –
2 | C=CC(=O)Nc1cc(Nc2ncnc(Nc3cc(Cl)c(F)cc3C(C)(C)O)n2)c(OC)cc1N(C)CCN(C)C [Compound 11, N-(5-(4-(5-chloro-4-fluoro-2-(2-hydroxypropan-2-yl)phenylamino)-1,3,5-triazin-2-ylamino)-2-((2-(dimethylamino)ethyl)(methyl)amino)-4-methoxyphenyl)acrylamide] | 13 | – | 3 | 7.7 | 161 | 7.12 | – | 0.3 | 6.9 | 7.6 | 2800 | 21.6 | 9.7 | 20.7 | – | 25.2 | 26 | 10.9 | 2.8
3 | [2H]C([2H])([2H])N(CCN(C)c1cc(OC)c(Nc2ncnc(Nc3cc(F)c(Cl)cc3C(C)(C)O)n2)cc1NC(=O)C=C)C([2H])([2H])[2H] [Compound 37, N-(2-((2-(bis(methyl-d3)amino)ethyl)(methyl)amino)-5-((4-((4-chloro-5-fluoro-2-(2-hydroxypropan-2-yl)phenyl)amino)-1,3,5-triazin-2-yl)amino)-4-methoxyphenyl) acrylamide] | 10.3 | – | 3.3 | 1.5 | 67.7 | 11.8 | – | 0.5 | 8.1 | 9.5 | 2980 | 22.9 | 8.5 | 22.3 | – | 24 | 34.6 | 10 | 14.6
4 | C=CC(=O)Nc1cc(Nc2ncnc(Nc3cc(F)c(Cl)cc3C(C)(C)O)n2)c(OC)cc1N1CC[C@@H](N(C)C)C1 [Compound 51, (R)-N-(5-(4-(4-chloro-5-fluoro-2-(2-hydroxypropan-2-yl)phenylamino)-1,3,5-triazin-2-ylamino)-2-(3-(dimethylamino)pyrrolidin-1-yl)-4-methoxyphenyl)acrylamide] | 13.4 | – | 19.9 | 1.9 | 5.97 | 4.02 | – | 1 | 16.1 | 12.6 | > 3000 | 52.9 | 28.6 | 105 | – | 35.4 | 10.3 | 3.62 | 6.73
5 | C=CC(=O)Nc1cc(Nc2ncnc(Nc3cc(Cl)c(Cl)cc3C(C)(C)O)n2)c(OC)cc1N1CC[C@@H](N(C)C)C1 [Compound 61, (R)-N-(5-(4-(4,5-dichloro-2-(2-hydroxypropan-2-yl)phenylamino)-1,3,5-triazin-2-ylamino)-2-(3-(dimethylamino)pyrrolidin-1-yl)-4-methoxyphenyl)acry lamide] | 12.4 | – | 9 | 2.1 | 7.9 | 2.71 | – | 0.4 | 12.3 | 18 | 1510 | 18.8 | 14.2 | 87.8 | – | 25.6 | 5.62 | 1.03 | 2.72
6 | C=CC(=O)Nc1cc(Nc2nccc(Nc3cc(Cl)c(Cl)cc3C(C)(C)O)n2)c(OC)cc1N1CC[C@@H](N(C)C)C1 [Compound 68, (R)-N-(5-(4-(4,5-dichloro-2-(2-hydroxypropan-2-yl)phenylamino)pyrimidin-2-ylamino)-2-(3-(dimethylamino)pyrrolidin-1-yl)-4-methoxyphenyl)acrylamide] | 20.8 | – | 15.3 | 2.8 | 17.5 | 3.89 | – | 1.7 | 27 | 136 | 2510 | 33 | 31.5 | 96.7 | – | 46.1 | 13.6 | 3.6 | 11.4
7 | C=CC(=O)Nc1cc(Nc2ncnc(Nc3cc(Cl)c(F)cc3C(C)(C)O)n2)c(OC)cc1N1CC[C@@H](NC)C1 [Compound 73, (R)-N-(5-(4-(5-chloro-4-fluoro-2-(2-hydroxypropan-2-yl)phenylamino)-1,3,5-triazin-2-ylamino)-4-methoxy-2-(3-(methylamino)pyrrolidin-1-yl)phenyl) acrylamide] | 8 | – | 12.2 | 3.3 | 6.15 | 1.1 | – | 0.7 | 8.6 | 27.8 | > 3000 | 43.2 | 22.6 | 26 | – | 27.4 | 151 | 3.75 | 16.3
8 | C=CC(=O)Nc1cc(Nc2nccc(Nc3cc(Cl)c(F)cc3C(C)(C)O)n2)c(OC)cc1N1C[C@@H]2CN(C)C[C@@H]21 [Compound 96, N-(5-(4-(5-chloro-4-fluoro-2-(2-hydroxypropan-2-yl)phenylamino)pyrimidin-2-ylamino)-4-methoxy-2-((1S,5R)-3-methyl-3,6-diazabicyclo[3.2.0]heptan-6-yl)phenyl)acrylamide] | 17.8 | – | 2.1 | 0.8 | 13.2 | 1.42 | – | 0.4 | 7.1 | 50.4 | 2990 | 50 | 13.5 | 50 | – | 55.6 | 25.1 | 2.8 | 7.04

Source: patent US20230293535A1, “ERBB/BTK INHIBITORS” (Dizal (Jiangsu) Pharmaceutical Co., Ltd., priority 2018, published 2023)
